From patent publication US9833497B2, “Human originated EGF domain proteins and use of the same” (CHENGDU SOURCEBIO LIMITED-LIABILITY COMPANY, priority 2013, dated 2017)

Experiments:
Format in all cases: cell-based
E. coli DH5α = assay: Antibacterial activity: MIC and growth curve against E. coli DH5α in 96-well plate; conditions: minimal inhibitory concentration against E. coli DH5α; 96-well plate, 5×10^5 CFU/mL, 37° C., judged after 8 h
Method in brief: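 MIC taken as lowest protein level with no bacterial growth, tracked by A600 every 30 min during 37 °C, 175 rpm culture. Two-fold protein series 50-12.5 μg/mL final, triplicate wells, against 5×10^5 CFU/mL of LB-washed mid-log cells.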

E. coli BL21 = assay: MIC against Gram-negative bacteria: E. coli BL21; conditions: 5×10^5 CFU/mL
Method in brief: (§1)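 MIC, the lowest recombinant protein concentration giving no bacterial growth, found by two-fold serial dilution of human EGF-domain proteins in triplicate. Inoculum 5×10^5 CFU/mL in LB from cultures at McFarland 0.5; plates incubated at 37° C, 175 rpm shaking.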

Pseudomonas aeruginosa = assay: MIC against Gram-negative bacteria: Pseudomonas aeruginosa; conditions: 5×10^5 CFU/mL
Method in brief: as §1

Klebsiella pneumonia = assay: MIC against Gram-negative bacteria: Klebsiella pneumonia; conditions: 5×10^5 CFU/mL
Method in brief: as §1

Enterobacter cloacae = assay: MIC against Gram-negative bacteria: Enterobacter cloacae; conditions: 5×10^5 CFU/mL
Method in brief: as §1

Aeromonas hydrophila = assay: MIC against Gram-negative bacteria: Aeromonas hydrophila; conditions: 5×10^5 CFU/mL
Method in brief: as §1

Citrobacter diversus = assay: MIC against Gram-negative bacteria: Citrobacter diversus; conditions: 5×10^5 CFU/mL
Method in brief: as §1

Moraxella catarrhalis = assay: MIC against Gram-negative bacteria: Moraxella catarrhalis; conditions: 5×10^5 CFU/mL
Method in brief: as §1

Proteus mirabilis = assay: MIC against Gram-negative bacteria: Proteus mirabilis; conditions: 5×10^5 CFU/mL
Method in brief: as §1

Proteus vulgaris = assay: MIC against Gram-negative bacteria: Proteus vulgaris; conditions: 5×10^5 CFU/mL
Method in brief: as §1

Serratia marcescens = assay: MIC against Gram-negative bacteria: Serratia marcescens; conditions: 5×10^5 CFU/mL
Method in brief: as §1

[1] = P. aeruginosa, 10 h cultivation at 37° C.
[2] = K. pneumonia, 10 h cultivation at 37° C.
[3] = E. cloacae, 10 h cultivation at 37° C.
[4] = A. hydrophila, 10 h cultivation at 37° C.
[5] = C. diversus, 10 h cultivation at 37° C.
[6] = M. catarrhalis, 10 h cultivation at 37° C.
[7] = P. mirabilis, 10 h cultivation at 37° C.
[8] = P. vulgaris, 10 h cultivation at 37° C.
[9] = S. marcescens, 10 h cultivation at 37° C.
[10] = 10 h cultivation at 37° C., two-fold serial dilution
[11] = Pseudomonas aeruginosa, 96-well plate, 37° C., 10 h
[12] = Klebsiella pneumonia, 96-well plate, 37° C., 10 h
[13] = Enterobacter cloacae, 96-well plate, 37° C., 10 h
[14] = Aeromonas hydrophila, 96-well plate, 37° C., 10 h
[15] = Citrobacter diversus, 96-well plate, 37° C., 10 h
[16] = Moraxella catarrhalis, 96-well plate, 37° C., 10 h
[17] = Proteus mirabilis, 96-well plate, 37° C., 10 h
[18] = Proteus vulgaris, 96-well plate, 37° C., 10 h
[19] = Serratia marcescens, 96-well plate, 37° C., 10 h

Row | Substance | MIC (E. coli DH5α) [µg/mL] | MIC (μg/mL) E. coli BL21 (E. coli BL21; 10 h cultivation at 37° C.) [µg/mL] | MIC (μg/mL) P. aeruginosa (Pseudomonas aeruginosa; [1]) [µg/mL] | MIC (μg/mL) K. pneumonia (Klebsiella pneumonia; [2]) [µg/mL] | MIC (μg/mL) E. cloacae (Enterobacter cloacae; [3]) [µg/mL] | MIC (μg/mL) A. hydrophila (Aeromonas hydrophila; [4]) [µg/mL] | MIC (μg/mL) C. diversus (Citrobacter diversus; [5]) [µg/mL] | MIC (μg/mL) M. catarrhalis (Moraxella catarrhalis; [6]) [µg/mL] | MIC (μg/mL) P. mirabilis (Proteus mirabilis; [7]) [µg/mL] | MIC (μg/mL) P. vulgaris (Proteus vulgaris; [8]) [µg/mL] | MIC (μg/mL) S. marcescens (Serratia marcescens; [9]) [µg/mL] | MIC E. coli BL21 (E. coli BL21; 96-well plate, 37° C., 10 h) [µg/mL] | MIC P. aeruginosa (Pseudomonas aeruginosa; 96-well plate, 37° C., 10 h) [µg/mL] | MIC K. pneumonia (Klebsiella pneumonia; 96-well plate, 37° C., 10 h) [µg/mL] | MIC E. cloacae (Enterobacter cloacae; 96-well plate, 37° C., 10 h) [µg/mL] | MIC A. hydrophila (Aeromonas hydrophila; 96-well plate, 37° C., 10 h) [µg/mL] | MIC C. diversus (Citrobacter diversus; 96-well plate, 37° C., 10 h) [µg/mL] | MIC M. catarrhalis (Moraxella catarrhalis; 96-well plate, 37° C., 10 h) [µg/mL] | MIC P. mirabilis (Proteus mirabilis; 96-well plate, 37° C., 10 h) [µg/mL] | MIC P. vulgaris (Proteus vulgaris; 96-well plate, 37° C., 10 h) [µg/mL] | other results
1 | PRT238 (DICDPNPCENGGICLPGLADGSFSCECPDGFTDPNCS; listed as Homo sapiens) | 25 | 12.5 | 25 | 50 | 25 | 12.5 | 25 | 12.5 | 12.5 | 25 | 12.5 |  |  |  |  |  |  |  |  |  | 
2 | PRT1159 (TTDDQENECQHEAVCKDEINRPRCSCSLSYIGRLCV; listed as Homo sapiens) | 12.5 |  |  |  |  |  |  |  |  |  |  |  |  |  |  |  |  |  |  |  | MIC E. coli BL21 (E. coli BL21; [10]): 50 µg/mL; MIC P. aeruginosa (Pseudomonas aeruginosa; [10]): 12.5 µg/mL; MIC K. pneumonia (Klebsiella pneumonia; [10]): 50 µg/mL; MIC E. cloacae (Enterobacter cloacae; [10]): 12.5 µg/mL; MIC A. hydrophila (Aeromonas hydrophila; [10]): 25 µg/mL; MIC C. diversus (Citrobacter diversus; [10]): 50 µg/mL; MIC M. catarrhalis (Moraxella catarrhalis; [10]): 25 µg/mL; MIC P. mirabilis (Proteus mirabilis; [10]): 12.5 µg/mL; MIC P. vulgaris (Proteus vulgaris; [10]): 25 µg/mL; MIC S. marcescens (Serratia marcescens; [10]): 12.5 µg/mL
3 | PRT741 (SAHPCARDNGGCSHICIAKGDGTPRCSCPVHLVLLQNLLTCG; listed as Homo sapiens) | 12.5 |  |  |  |  |  |  |  |  |  |  | 50 | 12.5 | 25 | 50 | 12.5 | 50 | 12.5 | 50 | 25 | MIC S. marcescens (Serratia marcescens; 96-well plate, 37° C., 10 h): 12.5 µg/mL
4 | PRT865 (CSCHPVGSAVLPANSVTFCDPSNGDCPCKPGVAGRRCDRCMVGYWGFGDYGCRP; listed as Homo sapiens) | 25 | 12.5 | 25 | 50 | 12.5 | 50 | 12.5 | 50 | 25 | 12.5 | 12.5 |  |  |  |  |  |  |  |  |  | 
5 | PRT95 (DINECETGQHNCVPNSVCINTRGSFQCGPCQPGFVGDQASGCQ; listed as Homo sapiens) | 25 |  |  |  |  |  |  |  |  |  |  |  |  |  |  |  |  |  |  |  | MIC (μg/mL) E. coli BL21 (E. coli BL21; 96-well plate, 37° C., 10 h): 12.5 µg/mL; MIC (μg/mL) P. aeruginosa (Pseudomonas aeruginosa; [11]): 50 µg/mL; MIC (μg/mL) K. pneumonia (Klebsiella pneumonia; [12]): 12.5 µg/mL; MIC (μg/mL) E. cloacae (Enterobacter cloacae; [13]): 50 µg/mL; MIC (μg/mL) A. hydrophila (Aeromonas hydrophila; [14]): 12.5 µg/mL; MIC (μg/mL) C. diversus (Citrobacter diversus; [15]): 50 µg/mL; MIC (μg/mL) M. catarrhalis (Moraxella catarrhalis; [16]): 12.5 µg/mL; MIC (μg/mL) P. mirabilis (Proteus mirabilis; [17]): 25 µg/mL; MIC (μg/mL) P. vulgaris (Proteus vulgaris; [18]): 50 µg/mL; MIC (μg/mL) S. marcescens (Serratia marcescens; [19]): 25 µg/mL
6 | PRT1385 (GVRSCPGDCNQRGRCEDGRCVCWPGYTGTDC; listed as Homo sapiens) | 12.5 |  |  |  |  |  |  |  |  |  |  |  |  |  |  |  |  |  |  |  | MIC against E. coli BL21 (E. coli BL21; 10 h cultivation at 37° C.): 50 µg/mL; MIC against P. aeruginosa (Pseudomonas aeruginosa; Pseudomonas aeruginosa, 10 h cultivation at 37° C.): 12.5 µg/mL; MIC against K. pneumonia (Klebsiella pneumonia; Klebsiella pneumonia, 10 h cultivation at 37° C.): 50 µg/mL; MIC against E. cloacae (Enterobacter cloacae; Enterobacter cloacae, 10 h cultivation at 37° C.): 12.5 µg/mL; MIC against A. hydrophila (Aeromonas hydrophila; Aeromonas hydrophila, 10 h cultivation at 37° C.): 50 µg/mL; MIC against C. diversus (Citrobacter diversus; Citrobacter diversus, 10 h cultivation at 37° C.): 12.5 µg/mL; MIC against M. catarrhalis (Moraxella catarrhalis; Moraxella catarrhalis, 10 h cultivation at 37° C.): 50 µg/mL; MIC against P. mirabilis (Proteus mirabilis; Proteus mirabilis, 10 h cultivation at 37° C.): 12.5 µg/mL; MIC against P. vulgaris (Proteus vulgaris; Proteus vulgaris, 10 h cultivation at 37° C.): 25 µg/mL; MIC against S. marcescens (Serratia marcescens; Serratia marcescens, 10 h cultivation at 37° C.): 50 µg/mL
7 | PRT840 (GSARCGSGGPGSCPVPQECVPQDGAAGAGLCRCPQGWAGPHCR; listed as Homo sapiens) | 25 | 12.5 | 25 | 25 | 12.5 | 25 | 12.5 | 25 | 12.5 | 25 | 25 |  |  |  |  |  |  |  |  |  | 
8 | PRT187 (KVDRCTSNPCANGGQCLNRGPSRMCRCRPGFTGTYCE; listed as Homo sapiens) | 25 | 12.5 | 25 | 12.5 | 25 | 12.5 | 25 | 12.5 | 25 | 12.5 | 25 |  |  |  |  |  |  |  |  |  | 
9 | PRT1256 (DVDECQDNNGGCQQICVNAMGSYECQCHSGFFLSDNQ; listed as Homo sapiens) | 25 |  |  |  |  |  |  |  |  |  |  |  |  |  |  |  |  |  |  |  | MIC against E. coli BL21 (E. coli BL21; 96-well plate, 37° C., 10 h): 12.5 µg/mL; MIC against P. aeruginosa (Pseudomonas aeruginosa; [11]): 25 µg/mL; MIC against K. pneumonia (Klebsiella pneumonia; [12]): 12.5 µg/mL; MIC against E. cloacae (Enterobacter cloacae; [13]): 25 µg/mL; MIC against A. hydrophila (Aeromonas hydrophila; [14]): 50 µg/mL; MIC against C. diversus (Citrobacter diversus; [15]): 12.5 µg/mL; MIC against M. catarrhalis (Moraxella catarrhalis; [16]): 50 µg/mL; MIC against P. mirabilis (Proteus mirabilis; [17]): 12.5 µg/mL; MIC against P. vulgaris (Proteus vulgaris; [18]): 50 µg/mL; MIC against S. marcescens (Serratia marcescens; [19]): 25 µg/mL
10 | PRT655 (DVDECATTDPCVGGHCVNTEGSFNCLCETGFQPSPESGECV; listed as Homo sapiens) | 25 |  |  |  |  |  |  |  |  |  |  | 50 | 12.5 | 25 | 50 | 25 | 12.5 | 50 | 25 | 12.5 | MIC S. marcescens (Serratia marcescens; 96-well plate, 37° C., 10 h): 25 µg/mL
11 | PRT724 (DINECEQFGTCPQHCRNTKGSYECVCADGFTSMSDRPGKRCA; listed as Homo sapiens) | 12.5 |  |  |  |  |  |  |  |  |  |  | 12.5 | 12.5 | 12.5 | 25 | 12.5 | 25 | 12.5 | 25 | 12.5 | MIC S. marcescens (Serratia marcescens; 96-well plate, 37° C., 10 h): 25 µg/mL
12 | PRT726 (LPPPCRCMHGGNCYFDETDLPKCKCPSGYTGKYCE; listed as Homo sapiens) | 12.5 |  |  |  |  |  |  |  |  |  |  | 50 | 25 | 25 | 12.5 | 25 | 50 | 25 | 12.5 | 50 | MIC S. marcescens (Serratia marcescens; 96-well plate, 37° C., 10 h): 25 µg/mL
13 | PRT221 (YTECTDGYEWDPDSQHCRDVNECLTIPEACKGEMKCINHYGGYLCL; listed as Homo sapiens) | 12.5 | 50 | 50 | 12.5 | 25 | 50 | 25 | 12.5 | 25 | 50 | 12.5 |  |  |  |  |  |  |  |  |  | 
